Key:
[1] = tested on: Staphylococcus aureus; experiment: Test of the antibacterial activity (agar plate, antibiotic test sheets, inhibition halo); assay type: cell-based; settings: 16 hours at 37° C.
Protocol: For the test of the antibacterial action, agar plates containing 2 ml of Staphylococcus aureus sowing in 200 ml of agar solution were firstly prepared. Makandechamone was applied in a 1 mg/ml solution to antibiotic test sheets (Schleicher and Schüll) having a diameter of 6 mm and placed on the agar plate. The inoculated Staphylococcus plates were incubated for 16 hours at 37° C. Inhibition halos having the following diameters (mm) were then observed: […]

[2] = Stability (physicochemical properties); settings: neutral and acidic medium
Source text: (§1) Stable in neutral and acidic medium.

[3] = Solubility (physicochemical properties)
Source text: as §1

[4] = tested on: certain bee-pathogenic bacteria; settings: cited from earlier work
[5] = tested on: HIV; settings: cited from earlier work

C=C1CC(C)(C)CCC1CC12CC(CC=C(C)C)C(C)(C)C(C(=O)c3ccccc3)(C1=O)C(O)=C(CC=C(C)C)C2=O (stereo not drawn) [makandechamone]
Inhibition halo size ([1]; 10 μl of 1 mg/ml solution on 6 mm test sheet): 7 mm | Inhibition halo size ([1]; 20 μl of 1 mg/ml solution on 6 mm test sheet): 12 mm | Inhibition halo size ([1]; 40 μl of 1 mg/ml solution on 6 mm test sheet): 14 mm | Stability [2]: Stable | Solubility in medium polar and polar organic solvents ([3]; medium polar and polar organic solvents): soluble | Solubility in water ([3]; water): not very soluble

chamone I
Activity against certain bee-pathogenic bacteria [4]: active

guttiferone F
HIV-inhibitory action [5]: HIV-inhibitory action

nemorosome II
Activity against certain bee-pathogenic bacteria [4]: active
